Results from ChEMBL document CHEMBL1140282, “1,4-Benzodiazepine-2,5-diones as small molecule antagonists of the HDM2-p53 interaction: discovery and SAR” (Bioorg Med Chem Lett, 2005).

Legend:
[1] = target: Tumour suppressor p53/oncoprotein Mdm2 (Homo sapiens, UniProt Q00987); assay: Inhibition of p53-binding to HDM2 (human MDM2) by fluorescence polarization peptide displacement assay; assay type: protein assay
[2] = Dissociation constant was determined; (by measuring difference in protein melting temperature); assay type: physicochemical

Sequence of Tumour suppressor p53/oncoprotein Mdm2 (P04637 whole entry): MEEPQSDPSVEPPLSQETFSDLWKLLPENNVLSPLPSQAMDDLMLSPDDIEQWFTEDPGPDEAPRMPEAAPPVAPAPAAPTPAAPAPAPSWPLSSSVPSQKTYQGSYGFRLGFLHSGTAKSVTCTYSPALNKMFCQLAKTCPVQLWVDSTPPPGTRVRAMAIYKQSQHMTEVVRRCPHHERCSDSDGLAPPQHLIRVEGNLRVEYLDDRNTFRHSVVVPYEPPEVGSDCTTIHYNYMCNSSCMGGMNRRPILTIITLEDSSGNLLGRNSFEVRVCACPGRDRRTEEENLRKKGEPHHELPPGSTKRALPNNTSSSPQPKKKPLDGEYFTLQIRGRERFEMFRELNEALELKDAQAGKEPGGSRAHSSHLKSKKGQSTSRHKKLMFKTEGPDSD
Sequence of Tumour suppressor p53/oncoprotein Mdm2 (Q00987 whole entry): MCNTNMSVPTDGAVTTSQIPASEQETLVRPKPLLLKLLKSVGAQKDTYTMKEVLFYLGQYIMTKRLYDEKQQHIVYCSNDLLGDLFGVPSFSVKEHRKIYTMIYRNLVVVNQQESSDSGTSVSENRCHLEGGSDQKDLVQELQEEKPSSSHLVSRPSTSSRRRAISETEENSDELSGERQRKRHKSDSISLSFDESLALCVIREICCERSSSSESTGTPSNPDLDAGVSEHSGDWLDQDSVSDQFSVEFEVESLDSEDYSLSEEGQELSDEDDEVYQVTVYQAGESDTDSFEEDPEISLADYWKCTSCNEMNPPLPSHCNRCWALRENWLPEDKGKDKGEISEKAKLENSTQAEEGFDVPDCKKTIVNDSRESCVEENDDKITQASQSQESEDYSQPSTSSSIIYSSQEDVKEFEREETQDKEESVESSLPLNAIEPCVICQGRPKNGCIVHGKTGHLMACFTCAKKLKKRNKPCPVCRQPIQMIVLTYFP

Row | SMILES | IC50 [1] [nM] | Kd [2] [nM]
1 | O=C(O)[C@H](c1ccc(C(F)(F)F)cc1)N1C(=O)c2cc(I)ccc2NC(=O)[C@@H]1c1ccc(Cl)cc1 | 670 | –
2 | O=C(O)[C@H](c1ccccc1)N1C(=O)c2cc(I)ccc2NC(=O)[C@@H]1c1ccccc1 | 38000 | –
3 | CC(C)c1ccc([C@@H](C(=O)O)N2C(=O)c3cc(I)ccc3NC(=O)[C@@H]2c2ccc(Cl)cc2)cc1 | 1550 | 83
4 | Cc1ccc([C@H]2C(=O)Nc3ccc(I)cc3C(=O)N2[C@H](C(=O)O)c2ccccc2)cc1 | 13300 | –
5 | O=C(O)[C@H](c1ccc(Cl)nc1)N1C(=O)c2cc(I)ccc2NC(=O)[C@@H]1c1cc2ccccc2[nH]1 | 7900 | –
6 | Cc1ccc([C@@H](C(=O)O)N2C(=O)c3cc(I)ccc3NC(=O)[C@@H]2c2ccc(Cl)cc2)cc1 | 1590 | 167
7 | O=C(O)[C@H](c1ccc(Cl)cc1)N1C(=O)c2cc(I)ccc2NC[C@@H]1c1ccc(Cl)cc1 | 490 | –
8 | CC(C)(C)c1ccc([C@@H](C(=O)O)N2C(=O)c3cc(I)ccc3NC(=O)[C@@H]2c2ccc(Cl)cc2)cc1 | 2270 | –
9 | O=C(O)[C@H](c1ccc(Cl)cc1)N1C(=O)c2ccccc2NC(=O)[C@@H]1c1ccc(Cl)cc1 | 14800 | 7690
10 | O=C(O)[C@H](c1ccc(Br)cc1)N1C(=O)c2cc(I)ccc2NC(=O)[C@@H]1c1ccc(Cl)cc1 | 620 | 83
11 | O=C(O)[C@H](c1ccc(Cl)cc1)N1C(=O)c2cc(I)ccc2NC(=O)[C@@H]1c1ccc(C(F)(F)F)cc1 | 620 | –
12 | CCCC[C@@H](C(=O)O)N1C(=O)c2cc(I)ccc2NC(=O)[C@@H]1c1ccc(Cl)cc1 | 14000 | –
13 | O=C(O)[C@H](c1ccc(Cl)nc1)N1C(=O)c2cc(I)ccc2NC(=O)[C@@H]1c1c[nH]c2ccccc12 | 55000 | –
14 | CCc1ccc2c(c1)C(=O)N([C@H](C(=O)O)c1ccc(Cl)cc1)[C@@H](c1ccc(Cl)cc1)C(=O)N2 | 1500 | –
15 | O=C(O)[C@H](c1ccc(Cl)cc1)N1C(=O)c2cc(CO)ccc2NC(=O)[C@@H]1c1ccc(Cl)cc1 | 3300 | –
16 | C#Cc1ccc2c(c1)C(=O)N([C@H](C(=O)O)c1ccc(Cl)cc1)[C@@H](c1ccc(Cl)cc1)C(=O)N2 | 870 | 250
17 | O=C(O)[C@H](c1ccc(Cl)cc1)N1C(=O)c2cc(Cl)ccc2NC(=O)[C@@H]1c1ccc(Cl)cc1 | 830 | 1530
18 | O=C(O)[C@H](c1ccc(Cl)cc1)N1C(=O)c2cc(I)c(Cl)cc2NC(=O)[C@@H]1c1ccc(Cl)cc1 | 700 | 167
19 | O=C(O)[C@H](c1cccc(Cl)c1)N1C(=O)c2cc(I)ccc2NC(=O)[C@@H]1c1ccc(Cl)cc1 | 2700 | –
20 | O=C(O)[C@H](c1ccc(Cl)cc1)N1C(=O)c2cc(Br)ccc2NC(=O)[C@@H]1c1ccc(Cl)cc1 | 830 | 970
21 | O=C(O)[C@H](c1ccc(Cl)cc1)N1C(=O)c2cc(I)ccc2NC(=O)[C@@H]1c1ccc(OC(F)(F)F)cc1 | 83 | 760
22 | O=C(O)[C@H](c1ccc(Cl)cc1)N1Cc2cc(I)ccc2NC[C@@H]1c1ccc(Cl)cc1 | > 125000 | –
23 | O=C(O)[C@H](c1ccccc1)N1C(=O)c2cc(I)ccc2NC(=O)[C@@H]1c1ccccc1C(F)(F)F | > 125000 | –

The next lines start with the values.

Row | IC50 [1] [nM] | Kd [2] [nM] | SMILES
24 | 45000 | – | O=C(O)[C@H](c1ccccc1)N1C(=O)c2cc(I)ccc2NC(=O)[C@@H]1c1cccc(C(F)(F)F)c1
25 | 6300 | 1670 | O=C(O)[C@H](c1ccc(Cl)cc1)N1C(=O)c2ccc(Cl)cc2NC(=O)[C@@H]1c1ccc(Cl)cc1
26 | 20000 | – | O=C1Nc2ccc(I)cc2C(=O)N([C@H](C(=O)O)c2ccccc2Cl)[C@H]1c1ccc(Cl)cc1
27 | 2400 | – | O=C(O)[C@H](c1ccc(Cl)cc1)N1C(=O)c2cc(CCO)ccc2NC(=O)[C@@H]1c1ccc(Cl)cc1
28 | 1470 | – | O=C(O)[C@H](c1ccc(Cl)nc1)N1C(=O)c2cc(I)ccc2NC(=O)[C@@H]1c1ccc(Cl)cc1
29 | 2270 | – | CC(C)(C)c1ccc2c(c1)C(=O)N([C@H](C(=O)O)c1ccc(Cl)cc1)[C@@H](c1ccc(Cl)cc1)C(=O)N2
30 | 1020 | – | CC(C)c1ccc2c(c1)C(=O)N([C@H](C(=O)O)c1ccc(Cl)cc1)[C@@H](c1ccc(Cl)cc1)C(=O)N2
31 | 1320 | – | O=C(O)[C@H](c1ccccc1)N1C(=O)c2cc(I)ccc2NC(=O)[C@@H]1c1ccc(OC(F)(F)F)cc1
32 | 14800 | 10000 | N#Cc1ccc2c(c1)C(=O)N([C@H](C(=O)O)c1ccc(Cl)cc1)[C@@H](c1ccc(Cl)cc1)C(=O)N2
33 | 16500 | 14300 | O=C(O)[C@H](c1ccc(O)cc1)N1C(=O)c2cc(I)ccc2NC(=O)[C@@H]1c1ccc(Cl)cc1
34 | 12000 | – | CC(C)CC[C@@H](C(=O)O)N1C(=O)c2cc(I)ccc2NC(=O)[C@@H]1c1ccc(Cl)cc1
35 | 7500 | – | CCc1ccc([C@H]2C(=O)Nc3ccc(I)cc3C(=O)N2[C@H](C(=O)O)c2ccccc2)cc1
36 | > 125000 | – | CC(=O)Nc1ccc2c(c1)C(=O)N([C@H](C(=O)O)c1ccc(Cl)cc1)[C@@H](c1ccc(Cl)cc1)C(=O)N2
37 | 12000 | – | O=C1Nc2ccc(I)cc2C(=O)N([C@@H](Cc2ccccc2)C(=O)O)[C@H]1c1ccc(Cl)cc1
38 | 2500 | – | O=C(O)[C@H](c1ccccc1)N1C(=O)c2cc(I)ccc2NC(=O)[C@@H]1c1ccc(Cl)cc1
39 | 64000 | – | O=C1Nc2ccc(I)cc2C(=O)N([C@H](C(=O)O)C2CCCCC2)[C@H]1c1ccc(Cl)cc1
40 | 18000 | – | CC(C)c1ccc([C@H]2C(=O)Nc3ccc(I)cc3C(=O)N2[C@H](C(=O)O)c2ccccc2)cc1
41 | 7400 | – | O=C(O)[C@H](c1ccc(Cl)cc1)N1C(=O)c2cc(I)ccc2NC(=O)[C@@H]1c1ccc(Cl)nc1
